Experimental data: PubChem BioAssay AID2060602 (Molecular Pharmacology Branch, DTP, NCI, 2025)
Several values for one entry are separate records, joined by “and”; a condition that tells them apart may be missing. Equal values may be shown once. One block for each molecule: values may come before it.

Tested on: 648629-189-R-J1-PDC complex spheroids viability
Experiment: Anticancer human tumor 648629-189-R-J1-PDC patient-derived bladder carcinoma cell line growth inhibition [CLK]
Conditions: for viability, T/C: stronger effect = lower value
From the text: A high-throughput screen of multi-cell type tumor spheroids was designed to identify active combinations of […] and targeted small molecules. Complex spheroids include a stromal component modeled by human endothelial cells (HUVEC) and fibroblasts modeled by human mesenchymal stem cells (MSCs). The concentration ranges selected for each drug and investigational agent were based upon clinically achievable concentrations if the clinical Cmax of the agent was known.
Compounds. The drugs and investigational agents: cirtuvivint (SM08502; NSC835563), CC-671 (NSC850746), vemurafenib (NSC761431), tapotoclax (NSC804041), sotorasib (NSC818433), adagrasib (NSC831453), MRTX-1133 (NSC836407), BAY2416964 (NSC825713), copanlisib (NSC816437), inavolisib (NSC800729), abemaciclib (NSC768073), osimertinib (NSC779217), entinostat (NSC756642), eltanexor (KPT-8602, NSC794443), venetoclax (NSC766270), ceralasertib (NSC777638), bortezomib (NSC756655), olaparib (NSC753686), talazoparib (NSC767125), alisertib (NSC759677), peposertib (NSC802822), gemcitabine (NSC613327), 5-fluorouracil (NSC19893), SN-38 (NSC673596), oxaliplatin (NSC266046), paclitaxel (NSC125973), and doxorubicin (NSC123127), were obtained from the National Cancer Institute (NCI) Developmental Therapeutics Program Chemical Repository. The FDA-approved anticancer drug set is available from the Developmental Therapeutics Program at https://dtp.cancer.gov/organization/dscb/obtaining/available plates.htm. […] The stock solutions were prepared in dimethyl sulfoxide (DMSO, Sigma-Aldrich, St. Louis, MO, cat. D2650), except for the platinum complexes which were prepared in saline (Quality Biological, Gaithersburg, MD, cat. 114-055-101), at 800-fold the tested concentration and stored at -70 degrees C prior to their use. All drugs and investigational agents were tested over a range starting from a high concentration at or near the clinical Cmax and decreasing in half-log increments. If the clinical Cmax for an agent had not been determined, the highest concentration tested was 10 microM.
Cell Culture. All cells were maintained in an incubator at 37 degrees C and 5% CO2 with 95% humidity. The PDC lines were cultured according to standard operating procedures established by the NCI PDMR. Briefly, all PDCs were thawed and cultured in Matrigel-coated flasks prepared with a working solution of 1X Ham's F-12 nutrient mix, without supplementation (Invitrogen, Waltham, MA, cat. 11765054), 100 U/mL penicillin-streptomycin (Invitrogen, cat. 15140122), and 2.5% Matrigel (Corning Inc., Corning, NY, cat. 354248) for the first three passages. The 947758-054-R-J2-PDC line was cultured in 6B/Colon 1A media, which includes advanced DMEM/F-12 (Thermo Fisher Scientific, cat. 12634028), 10 mM HEPES (Thermo Fisher Scientific, cat. 15630080), 1X GlutaMAX supplement (Thermo Fisher Scientific, cat. 35050061), 0.1 mg/mL primocin (InvivoGen, cat. ant-pm-2), 10% defined fetal bovine serum, heat inactivated (HyClone Laboratories Inc., cat. SH30070.03HI), 1.25 mM N-Acetyl-L-cysteine (Sigma-Aldrich, cat. A9165), 10 mM nicotinamide (Sigma-Aldrich, cat. N0636), 1X B-27 supplement (Thermo Fisher Scientific, cat. 17504044), 1X N-2 supplement (Thermo Fisher Scientific, cat. 17502048), and 10 microM Y-27632 dihydrochloride (Tocris Bioscience, cat. 1254). The 876862-298-R-J1-PDC was cultured in 6E media, which includes all 6B/Colon 1A media components plus 50% L-WRN conditioned media (ATCC, cat. CRL-3276), 50 ng/mL recombinant human EGF recombinant protein (hEGF; Thermo Fisher Scientific, cat. PHG0311), 10 ng/mL recombinant human fibroblast growth factor 10 (hGFG-10; PeproTech, cat. 100-26), 1 ng/mL recombinant human fibroblast growth factor 2 (hFGF-2; PeproTech, cat. 100-18B), and 1 µM prostaglandin E2 (PGE2; Tocris, cat. 2296). The 227483-062-R1-J1-PDC line was cultured in Panc media, containing all 6E components except hFGF-2, with the addition of 500 nM SB-431542 (Selleckchem, cat. S1067) and 10 nM gastrin (Tocris, cat. 3006). […]

[1] = curve of first compound, second compound 0.0316 µM
[2] = curve of first compound, second compound 0.1 µM
[3] = curve of first compound, second compound 0.316 µM
[4] = curve of first compound, second compound 1 µM
[5] = curve of first compound, second compound 3.16 µM
[6] = curve of first compound, second compound 10 µM
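For viability, T/C in this document: drug exposure lasted seven days before viability readout; 100% = DMSO vehicle control wells.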

- IC50 [1]: > 300 nM
- IC50 [2]: 132 nM
- IC50 [3]: < 0.949 nM
- IC50 [4]: < 0.949 nM
- IC50 [5]: < 0.949 nM
- IC50 [6]: < 0.949 nM
SMILES: C=CC(=O)Nc1cc(Nc2nccc(-c3cn(C)c4ccccc34)n2)c(OC)cc1N(C)CCN(C)C + CNC(=O)c1ccc(Nc2nc(OC3CCCC3)c3c(-c4ccc5nc(C)oc5c4)c[nH]c3n2)c(OC)c1
- viability, T/C (second compound 0.0316 µM, first compound 0.000949 µM): 92.6%
- viability, T/C (second compound 0.0316 µM, first compound 0.003 µM): 103%
- viability, T/C (second compound 0.0316 µM, first compound 0.00949 µM): 102%
- viability, T/C (second compound 0.0316 µM, first compound 0.03 µM): 97.1%
- viability, T/C (second compound 0.0316 µM, first compound 0.0949 µM): 100%
- viability, T/C (second compound 0.0316 µM, first compound 0.3 µM): 95.4%
- viability, T/C (second compound 0.1 µM, first compound 0.000949 µM): 83.9%
- viability, T/C (second compound 0.1 µM, first compound 0.003 µM): 73.5%
- viability, T/C (second compound 0.1 µM, first compound 0.00949 µM): 69.3%
- viability, T/C (second compound 0.1 µM, first compound 0.03 µM): 66.2%
- viability, T/C (second compound 0.1 µM, first compound 0.0949 µM): 51%
- viability, T/C (second compound 0.1 µM, first compound 0.3 µM): 42.6%
- viability, T/C (second compound 0.316 µM, first compound 0.000949 µM): 27.9%
- viability, T/C (second compound 0.316 µM, first compound 0.003 µM): 27.3%
- viability, T/C (second compound 0.316 µM, first compound 0.00949 µM): 21.8%
- viability, T/C (second compound 0.316 µM, first compound 0.03 µM): 19%
- viability, T/C (second compound 0.316 µM, first compound 0.0949 µM): 22.1%
- viability, T/C (second compound 0.316 µM, first compound 0.3 µM): 15.5%
- viability, T/C (second compound 1 µM, first compound 0.000949 µM): 21.3%
- viability, T/C (second compound 1 µM, first compound 0.003 µM): 19.4%
- viability, T/C (second compound 1 µM, first compound 0.00949 µM): 23.2%
- viability, T/C (second compound 1 µM, first compound 0.03 µM): 16.1%
- viability, T/C (second compound 1 µM, first compound 0.0949 µM): 16.5%
- viability, T/C (second compound 1 µM, first compound 0.3 µM): 13.2%
- viability, T/C (second compound 3.16 µM, first compound 0.000949 µM): 18.7%
- viability, T/C (second compound 3.16 µM, first compound 0.003 µM): 19.8%
- viability, T/C (second compound 3.16 µM, first compound 0.00949 µM): 16.6%
- viability, T/C (second compound 3.16 µM, first compound 0.03 µM): 16.1%
- viability, T/C (second compound 3.16 µM, first compound 0.0949 µM): 16.3%
- viability, T/C (second compound 3.16 µM, first compound 0.3 µM): 14.8%
- viability, T/C (second compound 10 µM, first compound 0.000949 µM): 18.5%
- viability, T/C (second compound 10 µM, first compound 0.003 µM): 22.1%
- viability, T/C (second compound 10 µM, first compound 0.00949 µM): 22.6%
- viability, T/C (second compound 10 µM, first compound 0.03 µM): 17.6%
- viability, T/C (second compound 10 µM, first compound 0.0949 µM): 17.9%
- viability, T/C (second compound 10 µM, first compound 0.3 µM): 13.8%

SMILES: COC1C=CCC(C)C(C)S(=O)(=O)NC(=O)c2ccc3c(c2)N(CC2CCC21)CC1(CCCc2cc(Cl)ccc21)CO3 (stereo unspecified) + CN1CCN(c2cc(C(=O)Nc3cc4cc(-c5cnn(C)c5)ccc4cn3)ccn2)CC1
- IC50 [1]: 2090 nM
- IC50 [2]: 2100 nM
- IC50 [3]: < 31.6 nM
- IC50 [4]: < 31.6 nM
- IC50 [5]: < 31.6 nM
- IC50 [6]: < 31.6 nM
- viability, T/C (second compound 0.0316 µM, first compound 0.0316 µM): 106%
- viability, T/C (second compound 0.0316 µM, first compound 0.1 µM): 99.9%
- viability, T/C (second compound 0.0316 µM, first compound 0.316 µM): 93.2%
- viability, T/C (second compound 0.0316 µM, first compound 1 µM): 82%
- viability, T/C (second compound 0.0316 µM, first compound 3.16 µM): 32.4%
- viability, T/C (second compound 0.0316 µM, first compound 10 µM): 3.21%
- viability, T/C (second compound 0.1 µM, first compound 0.0316 µM): 114%
- viability, T/C (second compound 0.1 µM, first compound 0.1 µM): 94.4%
- viability, T/C (second compound 0.1 µM, first compound 0.316 µM): 92.4%
- viability, T/C (second compound 0.1 µM, first compound 1 µM): 80.1%
- viability, T/C (second compound 0.1 µM, first compound 3.16 µM): 33.3%
- viability, T/C (second compound 0.1 µM, first compound 10 µM): 3.02%
- viability, T/C (second compound 0.316 µM, first compound 0.0316 µM): 50.2%
- viability, T/C (second compound 0.316 µM, first compound 0.1 µM): 46.9%
- viability, T/C (second compound 0.316 µM, first compound 0.316 µM): 37.9%
- viability, T/C (second compound 0.316 µM, first compound 1 µM): 14.4%
- viability, T/C (second compound 0.316 µM, first compound 3.16 µM): 4.72%
- viability, T/C (second compound 0.316 µM, first compound 10 µM): 1.78%
- viability, T/C (second compound 1 µM, first compound 0.0316 µM): 0.38%
- viability, T/C (second compound 1 µM, first compound 0.1 µM): 0.34%
- viability, T/C (second compound 1 µM, first compound 0.316 µM): 0.42%
- viability, T/C (second compound 1 µM, first compound 1 µM): 0.15%
- viability, T/C (second compound 1 µM, first compound 3.16 µM): 0.13%
- viability, T/C (second compound 1 µM, first compound 10 µM): 0.08%
- viability, T/C (second compound 3.16 µM, first compound 0.0316 µM): 0.13%
- viability, T/C (second compound 3.16 µM, first compound 0.1 µM): 0.12%
- viability, T/C (second compound 3.16 µM, first compound 0.316 µM): 0.16%
- viability, T/C (second compound 3.16 µM, first compound 1 µM): 0.14%
- viability, T/C (second compound 3.16 µM, first compound 3.16 µM): 0.43%
- viability, T/C (second compound 3.16 µM, first compound 10 µM): 0.12%
- viability, T/C (second compound 10 µM, first compound 0.0316 µM): 0.17%
- viability, T/C (second compound 10 µM, first compound 0.1 µM): 0.13%
- viability, T/C (second compound 10 µM, first compound 0.316 µM): 0.2%
- viability, T/C (second compound 10 µM, first compound 1 µM): 0.21%
- viability, T/C (second compound 10 µM, first compound 3.16 µM): 0.24%
- viability, T/C (second compound 10 µM, first compound 10 µM): 0.51%

- IC50 (curve of compound): 4.35 nM and 2.55 nM
SMILES: CC(C)CC(NC(=O)C(Cc1ccccc1)NC(=O)c1cnccn1)B(O)O (stereo unspecified)
- viability, T/C (compound 0.000949 µM): 93.5% and 99.9%
- viability, T/C (compound 0.003 µM): 73.2% and 41.8%
- viability, T/C (compound 0.00949 µM): 1.45% and 1.53%
- viability, T/C (compound 0.03 µM): 0.27% and 1.43%
- viability, T/C (compound 0.0949 µM): 0.2% and 0.17%
- viability, T/C (compound 0.3 µM): 1.64% and 0.18%
